Counter-ions that a name gives are not always drawn.
Key:
[1] = test system: blood coagulation; test: Thromboelastogram in dogs after administration of the compound; assay type: in vivo; conditions: dog, 25 mg/kg; for Time of reaction of blood coagulation, R / Time of the clot formation K: arithmetic mean M; for Time of reaction of blood coagulation, R: 10 animals, initial 23.0; for Time of the clot formation K: initial 20.0
Procedure: (§1) The pharmacological studies of the hemostatic activity of the compounds according to the present invention was conducted in vivo and in vitro with the use of biochemical tests and by means of a thromboelasto- graph.
(§2) The blood for examination was taken from an opened dog's thigh vein prior to administration of the compound and 10, 30, 60, 90 and 120 min thereafter. For the cuvette of the thromboelasto- graph the blood was taken in the amount of 0.36 ml, while for biochemical tests -up to 10 ml (as the con- servant use was made of a 1.34% solution of sodium oxalate which was added in the ratio of 1:9).
The next series of experiments - administration of the compound according to the present invention in the dose of 25 mg/kg of the animals' bodymass.

[2] = test system: blood coagulation; test: Thromboelastogram in vitro; assay type: biochemical; conditions: for Time of the reaction of blood coagulation, R / Coagulation index, C: in vitro, experiment (O)
Procedure: as §1
The effect of the compound according to the present invention , viz. 3,1,18-trihydroxy-9,13-epofil- abdan-15-ic acid sodium salt trihydrate on hemostasis was studied in vitro with the use of a thromboelastogram.

[3] = test system: blood coagulation system; test: Biochemical tests of the blood coagulation system in dogs, intravenous; assay type: in vivo; conditions: dog, 25 mg/kg intravenously; for Time of blood coagulation / Tolerance of the plasma to heparin / Trombin time / Time of plasma recalcification: mean M; for Time of blood coagulation: 10 animals, initial 5.1; for Tolerance of the plasma to heparin: initial 6.8; for Trombin time: initial 17.0; for Time of plasma recalcification: initial 117.0
Procedure: as §1, §2
In another series of experiments the effect of the compound according to the present invention was studied in biochemical tests.

[4] = test system: local blood hemorrhage; test: Local blood hemorrhage, local application; assay type: in vivo; conditions: local effect, concentration of 0.5%
Text: The study of the effect provided by the compound according to the present invention on the local blood hemorrhage has shown that the local effect of the compound in tne concentration of 0.5% lowers the flood loss by 83% and the hemorrhage duration is reduced by 60%.

[5] = test system: thrombocytes; test: Effect on thrombocytes
Text: Furthermore, the compound according to the present invention increases the number of thrombocytes and activates adhesion and aggregation of thrombocytes.

[6] = test system: heparin; test: Effect on heparin
[7] = test system: white non-descipt mice; test: Acute toxicity, intraperitoneal; assay type: in vivo
Procedure: The compound according to the present invention, i.e. 3,16,18-trihydroxy-3,13-epoxylabdan-15-ic acid sodium salt trihydrate was tested for an acute toxicity.

[8] = test system: rats, dogs; conditions: in vivo
[9] = test system: blood coagulation; test: Thromboelastogram in dogs after administration of the compound; assay type: in vivo; conditions: 10 mg/kg
[10] = test system: blood coagulation system; test: Comparative clinical study of hemostatic effect against dicynone; assay type: in vivo; conditions: twenty post-operation patients, 20 minutes after introduction, p < 0.05
Procedure: The pharmaceutical preparation according to the present invention and dicynone were subjected to a comparative study for their hemostatic effect. Twenty post-operation patients (cardiorevivification department). The preparations were administered in the amount of […]. For the determination of the hemostatic effect determined by the functional state of the blood coagulation system the following characteristics were studied: thromboelastogram, the time of recalcification of citrate plasma and the plasma tolerance towards heparin. 20 minutes after the introduction of dicynone the parameter of the time of reaction of the rate of formation of thromboplastin was decreased by 32%, after administration of the preparation according to the present invention - by 75%, the time of coagulation was reduced, respectively, by 2'1 and 43%, t,ie time of recalcification of plasma decreased by 43 and 61% respectively, tolerance of plasma to heparin increased by 36 and 52%, respectively (at an error of p < 0.05).

[11] = test system: hemostatic effect; conditions: prior art statement; cited from earlier work
[12] = test system: blood coagulation; test: Blood coagulation in dogs after hypodermal administration of a 20% oily solution; assay type: in vivo; conditions: 50 mg/kg hypodermally; for Time of blood coagulation / Fibrinolytic activity of blood / Time of plasma recalcification / Tolerance of plasma to heparin / Fibrinogen: mean M; for Time of blood coagulation: prior 318.0; for Fibrinolytic activity of blood: prior 41.0; for Time of plasma recalcification: prior 106.0; for Tolerance of plasma to heparin: prior 214.0; for Fibrinogen: prior 435.0
Procedure: as §1
[…] For the cuvette of the thromboelasto- graph the blood was taken in the amount of 0.36 ml, while for biochemical tests -up to 10 ml (as the con- servant use was made of a 1.34% solution of sodium oxalate which was added in the ratio of 1:9).
The compound according to the invention , viz. ? 3,18-dihydroxy-9,13-epoxylabdan-15-16-olide was administered to dogs (a group of 5 animals) in the dose of 50 mg/kg of the animal's bodymass hypodermally as a 20% oily solution.

[13] = test system: mice; test: LD50, subcutaneous 20% oily solution; assay type: in vivo; conditions: subcutaneously (hypodermal)
Procedure: The LD50 was determined on mice (a group of 30 animals with. a bodymass of 20-21 g). The mice were administered with 3,18-dihydroxy-9,13-epoxylabdan-15,16-olide subcutaneously (a 20% oily solution). In the case of this manner of administration (i.e. hypodermal one) the LD50 was equal to more than 2,000 mg/kg of the animal's bodymass.

[14] = test system: hemostatic effect; conditions: after administration to patients; cited from earlier work
[15] = 30 minutes after administration
[16] = 60 minutes after administration
[17] = 90 minutes after administration
[18] = 120 minutes after administration

Compound: 3,16,18-trihydroxy-9,13-epoxylabdan-15-ic acid sodium salt trihydrate
- coagulation time K is reduced by [1]: 40-55%
- factor C (coagulation index) increased by [1]: 71-133%
- Time of reaction of blood coagulation, R ([1]; column 2 (30 min by the note to Table 3)): 10.0 mm
- Time of reaction of blood coagulation, R ([1]; column 3 (60 min by the note to Table 3)): 12.0 mm
- Time of reaction of blood coagulation, R ([1]; column 4 (90 min by the note to Table 3)): 9.0 mm
- Time of reaction of blood coagulation, R ([1]; column 5 (120 min by the note to Table 3)): 11.0 mm
- Time of the clot formation K ([1]; fifth value column (120 min by the note to Table 3)): 9.0 mm
- Time of the clot formation K ([1]; fourth value column (90 min by the note to Table 3)): 10.0 mm
- Time of the clot formation K ([1]; second value column (30 min by the note to Table 3)): 12.0 mm
- Time of the clot formation K ([1]; third value column (60 min by the note to Table 3)): 11.0 mm
- Time of the reaction of blood coagulation, R ([2]; 0.01 mg, control 26.0): 7.0 mm
- Time of the reaction of blood coagulation, R ([2]; 0.1 mg, control 11.0): 8.0 mm
- Coagulation index, C ([2]; 0.1 mg, control 19.6): 20.8 mm
- Coagulation index, C ([2]; 1 mg, control 23.0): 8.0 mm
- Time of the reaction of blood coagulation, R ([2]; 5 mg, control 18.0): 32.0 mm
- Coagulation index, C ([2]; 5 mg, control 19.0): 3.4 mm
- parameter R (the time of reaction of blood coagulation) ([2]; in vitro, 0.01, 0.1, 0.2 and 1.0 mg per 0.26 ml of blood): substantially reduces
- blood coagulation time is shortened by [3]: 35-40%
- thrombin time is reduced by [3]: 30-35%
- time of plasma recalcification shortened by [3]: 33-39%
- tolerance of plasma to heparin is increased by [3]: 30-40%
- Time of blood coagulation [3, 15]: 3.9 min
- Time of blood coagulation [3, 16]: 3.7 min
- Time of blood coagulation [3, 17]: 3.0 min
- Time of blood coagulation [3, 18]: 3.4 min
- Tolerance of the plasma to heparin [3, 15]: 4,8 min
- Trombin time [3, 15]: 12.0 s
- Time of plasma recalcification [3, 15]: 78.0 s
- Tolerance of the plasma to heparin [3, 16]: 4.6 min
- Trombin time [3, 16]: 12.0 s
- Time of plasma recalcification [3, 16]: 79.0 s
- Tolerance of the plasma to heparin [3, 17]: 4.3 min
- Trombin time [3, 17]: 11.0 s
- Time of plasma recalcification [3, 17]: 74.0 s
- Tolerance of the plasma to heparin [3, 18]: 4.1 min
- Trombin time [3, 18]: 11.0 s
- Time of plasma recalcification [3, 18]: 71.0 s
- hemorrhage duration is reduced by [4]: 60%
- lowers the flood loss by [4]: 83%
- adhesion and aggregation of thrombocytes [5]: activates
- number of thrombocytes [5]: increases
- effect on heparin [6]: did not prevent the effect of heparin but weakened it
- LD50 ([7]; intraperitoneal administration): over 2,000 mg/kg of the animal's bodymass
- death of the animals ([7]; intraperitoneal, 1,000 and 2,000 mg/kg): no death
- local irritation effect [8]: neither provided any local irritation effect
- process of blood coagulation [9]: promoted

Compound: O=S(=O)(O)c1cc(O)ccc1O [dicynone, 2,5-dihydroxybenzenesulphonate-j-diethylammonium salt]
- time of recalcification of plasma decreased by [10]: 43%
- tolerance of plasma to heparin increased by [10]: 36%
- time of reaction of the rate of formation of thromboplastin decreased by ([10]; amount of 75 g as printed): 32%

Compound: 3, 15, 16, 18-tetrahydroxy-9,13-epoxylabdane
- hemostatic effect [11]: weak

Compound: 3,18-dihydroxy-9,13-epoxylabdan-15,16-olide
- blood coagulation time decreases by ([12]; 20% oily solution): 51%
- time of recalcification decreases by ([12]; 20% oily solution): 32%
- tolerance of the plasma to heparin was increased by ([12]; 20% oily solution): 37%
- Time of blood coagulation ([12]; 20% oily solution, 60 min after administration): 269.0 s
- Time of blood coagulation ([12]; 20% oily solution, 120 min after administration): 218.0 s
- Time of blood coagulation ([12]; 20% oily solution, 180 min after administration): 159.0 s
- Fibrinolytic activity of blood ([12]; 60 min after administration): 53.0%
- Time of plasma recalcification ([12]; 60 min after administration): 102.0 s
- Tolerance of plasma to heparin ([12]; 60 min after administration): 192.0 s
- Fibrinogen ([12]; 60 min after administration): 387.0 mg%
- Fibrinolytic activity of blood ([12]; 120 min after administration): 54.0%
- Time of plasma recalcification ([12]; 120 min after administration): 84.0 s
- Tolerance of plasma to heparin ([12]; 120 min after administration): 138.0 s
- Fibrinogen ([12]; 120 min after administration): 361.0 mg%
- Fibrinolytic activity of blood ([12]; 180 min after administration): 43.0%
- Time of plasma recalcification ([12]; 180 min after administration): 72.0 s
- Tolerance of plasma to heparin ([12]; 180 min after administration): 135.0 s
- Fibrinogen ([12]; 180 min after administration): 293.0 mg%
- LD50 [13]: more than 2,000 mg/kg of the animal's bodymass

Compound: CC1(S(=O)(=O)[O-])CC(=O)c2ccccc2C1=O.[Na+] (stereo not shown) [sodium 2,3-dihydro-2-methyl-1,4-naphthoquinone-2-sulphonate]
- hemostatic effect is noted within [14]: 12 to 18 h

— EP0408749A1, “DERIVATIVES OF 3,18-DIHYDROXY-9,13-EPOXYLABDANE, METHOD OF OBTAINING THEM AND A HEMOSTATIC PHARMACEUTICAL PREPARATION BASED THEREON” (TASHKENTSKY GOSUDARSTVENNY UNIVERSITET IMENI V.I. LENINA, priority 1988, dated 1990)
